Test system: 935938-334-R-J1-PDC complex spheroid viability
Assay: Anticancer human tumor 935938-334-R-J1-PDC patient-derived small intestine adenocarcinoma cell line growth inhibition [POLQ]
Details: for IC50: curve of first compound; for viability, T/C: stronger effect = lower value; active means viability on the fitted dose curve at most 10% of control; inactive means the rest
Outline: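 PDC + HUVEC + MSC complex spheroids; POLQ inhibitors ± partner drugs; top conc. at/near clinical Cmax, else 10 microM (SN-38 1 microM), half-log dilutions; 37 degrees C, 5% CO2.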

[1] = second compound 0.0316 µM, first compound 0.0316 µM
[2] = second compound 0.0316 µM, first compound 0.1 µM
[3] = second compound 0.0316 µM, first compound 0.316 µM
[4] = second compound 0.0316 µM, first compound 1 µM
[5] = second compound 0.1 µM, first compound 0.0316 µM
[6] = second compound 0.1 µM, first compound 0.1 µM
[7] = second compound 0.1 µM, first compound 0.316 µM
[8] = second compound 0.1 µM, first compound 1 µM
[9] = second compound 0.316 µM, first compound 0.0316 µM
[10] = second compound 0.316 µM, first compound 0.1 µM
[11] = second compound 0.316 µM, first compound 0.316 µM
[12] = second compound 0.316 µM, first compound 1 µM
[13] = second compound 1 µM, first compound 0.0316 µM
[14] = second compound 1 µM, first compound 0.1 µM
[15] = second compound 1 µM, first compound 0.316 µM
[16] = second compound 1 µM, first compound 1 µM
[17] = second compound 3.16 µM, first compound 0.0316 µM
[18] = second compound 3.16 µM, first compound 0.1 µM
[19] = second compound 3.16 µM, first compound 0.316 µM
[20] = second compound 3.16 µM, first compound 1 µM
[21] = second compound 10 µM, first compound 0.0316 µM
[22] = second compound 10 µM, first compound 0.1 µM
[23] = second compound 10 µM, first compound 0.316 µM
[24] = second compound 10 µM, first compound 1 µM
[25] = second compound 0.0316 µM, first compound 3.16 µM
[26] = second compound 0.0316 µM, first compound 10 µM
[27] = second compound 0.1 µM, first compound 3.16 µM
[28] = second compound 0.1 µM, first compound 10 µM
[29] = second compound 0.316 µM, first compound 3.16 µM
[30] = second compound 0.316 µM, first compound 10 µM
[31] = second compound 1 µM, first compound 3.16 µM
[32] = second compound 1 µM, first compound 10 µM
[33] = second compound 3.16 µM, first compound 3.16 µM
[34] = second compound 3.16 µM, first compound 10 µM
[35] = second compound 10 µM, first compound 3.16 µM
[36] = second compound 10 µM, first compound 10 µM
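Further: spheroids exposed to drugs for seven days before viability read.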
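Wherever viability, T/C is given: 100% = DMSO vehicle control wells.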

COc1cccc(OCCCN)c1-c1cc(Nc2cnc(C#N)cn2)n[nH]1 + Nc1ccc(C#CCN(C(=O)Cc2ncc(C(F)(F)F)cc2C(F)(F)F)c2ccc(F)cc2)nn1
38.8 nM: IC50 (second compound 1 µM)
54.9 nM: IC50 (second compound 3.16 µM)
inactive: viability, T/C (second compound 0.0316 µM, first compound 0.00316 µM) 95.1% | viability, T/C (second compound 0.0316 µM, first compound 0.01 µM) 122% | viability, T/C [1] 54.7% | viability, T/C [2] 34.4% | viability, T/C [3] 10.4% | viability, T/C [4] 7.92% | viability, T/C (second compound 0.1 µM, first compound 0.00316 µM) 111% | viability, T/C (second compound 0.1 µM, first compound 0.01 µM) 99.2% | viability, T/C [5] 72.4% | viability, T/C [6] 35.2% | viability, T/C [7] 9.41% | viability, T/C (second compound 0.316 µM, first compound 0.00316 µM) 102% | viability, T/C (second compound 0.316 µM, first compound 0.01 µM) 92.4% | viability, T/C [9] 44.1% | viability, T/C [10] 28.3% | viability, T/C [11] 8.42% | viability, T/C (second compound 1 µM, first compound 0.00316 µM) 117% | viability, T/C (second compound 1 µM, first compound 0.01 µM) 83.2% | viability, T/C [13] 62.1% | viability, T/C [14] 23.2% | viability, T/C [15] 10.4% | viability, T/C (second compound 3.16 µM, first compound 0.00316 µM) 93.1% | viability, T/C (second compound 3.16 µM, first compound 0.01 µM) 71% | viability, T/C [17] 76.5% | viability, T/C [18] 21.5% | viability, T/C (second compound 10 µM, first compound 0.00316 µM) 80.4% | viability, T/C (second compound 10 µM, first compound 0.01 µM) 88.1% | viability, T/C [21] 66.1% | viability, T/C [22] 15.1% | viability, T/C [23] 11.3% | viability, T/C [24] 12.5%
31.7 nM: IC50 (second compound 0.316 µM)
45.5 nM: IC50 (second compound 10 µM)
61.6 nM: IC50 (second compound 0.1 µM)
36.6 nM: IC50 (second compound 0.0316 µM)
active: viability, T/C [8] 8.83% | viability, T/C [12] 8.2% | viability, T/C [16] 7.61% | viability, T/C [19] 10.1% | viability, T/C [20] 8.73%

Nc1ccn(C2OC(CO)C(O)C2(F)F)c(=O)n1 (stereo not drawn) + Nc1ccc(C#CCN(C(=O)Cc2ncc(C(F)(F)F)cc2C(F)(F)F)c2ccc(F)cc2)nn1
< 31.6 nM: IC50 (second compound 0.0316 µM) | IC50 (second compound 0.1 µM) | IC50 (second compound 0.316 µM) | IC50 (second compound 1 µM) | IC50 (second compound 3.16 µM) | IC50 (second compound 10 µM)
inactive: viability, T/C [1] 35.4% | viability, T/C [2] 27.6% | viability, T/C [3] 17.3% | viability, T/C [4] 17.3% | viability, T/C [25] 18.2% | viability, T/C [26] 16.8% | viability, T/C [5] 33.2% | viability, T/C [6] 24.4% | viability, T/C [7] 16.5% | viability, T/C [8] 17.5% | viability, T/C [27] 19.1% | viability, T/C [28] 13.9% | viability, T/C [9] 31.1% | viability, T/C [10] 24.8% | viability, T/C [11] 23.2% | viability, T/C [12] 19.6% | viability, T/C [29] 17.1% | viability, T/C [30] 14.4% | viability, T/C [13] 33.2% | viability, T/C [14] 23.4% | viability, T/C [15] 18.2% | viability, T/C [16] 19.1% | viability, T/C [31] 16.6% | viability, T/C [32] 15.3% | viability, T/C [17] 30.2% | viability, T/C [18] 25.6% | viability, T/C [19] 20.2% | viability, T/C [20] 21.2% | viability, T/C [33] 17.5% | viability, T/C [34] 17.1% | viability, T/C [21] 42.9% | viability, T/C [22] 31.6% | viability, T/C [23] 30.1% | viability, T/C [24] 20.6% | viability, T/C [35] 19.8% | viability, T/C [36] 19.2%

O=C(c1cc(Cc2n[nH]c(=O)c3ccccc23)ccc1F)N1CCN(C(=O)C2CC2)CC1 + Nc1ccc(C#CCN(C(=O)Cc2ncc(C(F)(F)F)cc2C(F)(F)F)c2ccc(F)cc2)nn1
> 10000 nM: IC50 (second compound 0.0316 µM) | IC50 (second compound 0.1 µM) | IC50 (second compound 0.316 µM) | IC50 (second compound 1 µM) | IC50 (second compound 3.16 µM) | IC50 (second compound 10 µM)
inactive: viability, T/C [1] 87.6% | viability, T/C [2] 89.3% | viability, T/C [3] 108% | viability, T/C [4] 89.5% | viability, T/C [25] 75.2% | viability, T/C [26] 76.3% | viability, T/C [5] 93.7% | viability, T/C [6] 81% | viability, T/C [7] 105% | viability, T/C [8] 73.1% | viability, T/C [27] 81% | viability, T/C [28] 60% | viability, T/C [9] 84.4% | viability, T/C [10] 85% | viability, T/C [11] 116% | viability, T/C [12] 69.3% | viability, T/C [29] 74.3% | viability, T/C [30] 53.3% | viability, T/C [13] 99.3% | viability, T/C [14] 99.8% | viability, T/C [15] 107% | viability, T/C [16] 98.6% | viability, T/C [31] 111% | viability, T/C [32] 78.7% | viability, T/C [17] 92% | viability, T/C [18] 93.5% | viability, T/C [19] 95% | viability, T/C [20] 94.8% | viability, T/C [33] 94.9% | viability, T/C [34] 69.2% | viability, T/C [21] 84.4% | viability, T/C [22] 94.9% | viability, T/C [23] 102% | viability, T/C [24] 98.2% | viability, T/C [35] 81% | viability, T/C [36] 85.9%

O=c1[nH]cc(F)c(=O)[nH]1 + Nc1ccc(C#CCN(C(=O)Cc2ncc(C(F)(F)F)cc2C(F)(F)F)c2ccc(F)cc2)nn1
> 10000 nM: IC50 (second compound 0.0316 µM) | IC50 (second compound 0.1 µM) | IC50 (second compound 0.316 µM) | IC50 (second compound 1 µM) | IC50 (second compound 3.16 µM) | IC50 (second compound 10 µM)
inactive: viability, T/C [1] 83% | viability, T/C [2] 88.5% | viability, T/C [3] 87.4% | viability, T/C [4] 68.5% | viability, T/C [25] 62.7% | viability, T/C [26] 48.8% | viability, T/C [5] 101% | viability, T/C [6] 92.9% | viability, T/C [7] 82.1% | viability, T/C [8] 66.3% | viability, T/C [27] 60.7% | viability, T/C [28] 53.4% | viability, T/C [9] 81.5% | viability, T/C [10] 74.1% | viability, T/C [11] 88.9% | viability, T/C [12] 68.4% | viability, T/C [29] 55.8% | viability, T/C [30] 56.5% | viability, T/C [13] 103% | viability, T/C [14] 79.7% | viability, T/C [15] 104% | viability, T/C [16] 68.9% | viability, T/C [31] 55% | viability, T/C [32] 61% | viability, T/C [17] 92.2% | viability, T/C [18] 85.8% | viability, T/C [19] 86.6% | viability, T/C [20] 62.1% | viability, T/C [33] 61% | viability, T/C [34] 53.7% | viability, T/C [21] 125% | viability, T/C [22] 101% | viability, T/C [23] 91.8% | viability, T/C [24] 58.3% | viability, T/C [35] 52.4% | viability, T/C [36] 56.7%

— PubChem BioAssay AID1963829 (Molecular Pharmacology Branch, DTP, NCI, 2024)
